# B1: DL-1: recombinant NOTCH ligand Delta-like 1, used coated as DL-1-Fc (SEQ ID NO: 8) (protein, listed as Homo sapiens)
# chain: MGSRCALALAVLSALLCQVWSSGVFELKLQEFVNKKGLLGNRNCCRGGAGPPPCACRTFFRVCLKHYQASVSPEPPCTYGSAVTPVLGVDSFSLPDGGGADSAFSNPIRFPFGFTWPGTFSLIIEALHTDSPDDLATENPERLISRLATQRHLTVGEEWSQDLHSSGRTDLKYSYRFVCDEHYYGEGCSVFCRPRDDAFGHFTCGERGEKVCNPGWKGPYCTEPICLPGCDEQHGFCDKPGECKCRVGWQGRYCDECIRYPGCLHGTCQQPWQCNCQEGWGGLFCNQDLNYCTHHKPCKNGATCTNTGQGSYTCSCRPGYTGATCELGIDECDPSPCKNGGSCTDLENSYSCTCPPGFYGKICELSAMTCADGPCFNGGRCSDSPDGGYSCRCPVGYSGFNCEKKIDYCSSSPCSNGAKCVDLGDAYLCRCQAGFSGRHCDDNVDDCASSPCANGGTCRDGVNDFSCTCPPGYTGRNCSAPVSRCEHAPCHNGATCHERGHRYVCECARGYGGPNCQFLLPELPPGPAVVDLTEKLEGQGGPFPWVAVCAGVILVLMLLLGCAAVVVCVRLRLQKHRPPADPCRGETETMNNLANCQREKDISVSIIGATQIKNTNKKADFHGDHSADKNGFKARYPAVDYNLVQDLKGDDTAVRDAHSKRDTKCQPQGSSGEEKGTPTTLRGGEASERKRPDSGCSTSKDTKYQSVYVISEEKDECVIATEV
# Legend:
# Format in all cases: cell-based, human
# [1] = test system: TGF-βRII protein expression; test: Surface staining / flow cytometry of TGF-βRII protein on CD4+CD25- T cells; settings: CD4+CD25- T cells incubated 48 hours with ligand
# Experimental: (§1) FIG. 3: TGF-βRII expression on effector T cells after NOTCH ligands exposure • A) CD4^+CD25^−T cells were purified using Miltenyi microbeads from PBMC and cultured for 3 hours in coated wells with anti-CD3 (200 ng/ml) and NOTCH ligands (5 μg/ml) or IgG control (5 μg/ml). Quantitative real-time PCR was performed to measure the transcripts levels of TGF-βRII. Data shown are mean±SEM and are representative of 4 independent experiments. * indicates P<0.05. • B) Protein levels of TGF-βRII in CD4^+CD25^−T cells stimulated to DL-1, DL-4 and Jagged-1 using FACS analysis. Mean of fluorescence are represented±SEM. * indicates P<0.05.
# For surface staining, the cells were harvested, washed twice and resuspended in 1% FCS buffer. The cells were stained with mAbs for CD4 (Beckman Coulter), TGF-βRII (R&D) as per manufacturer's instructions for 20 min at 4° C. Cells were then analyzed by flow cytometry using FACScalibur™ and CellQuest™ software (Becton Dickinson, San Jose, Calif., USA).
# TGF-βRII protein expression was assessed by flow cytometry. In these experiments, effector CD4^+CD25^− T cells were isolated and incubated for 48 hours in the presence of NOTCH ligands or IgG control.
# TGF-βRII RNA expression = test: Quantitative real-time PCR of TGF-βRII transcripts in CD4+CD25- T cells; settings: coated anti-CD3 (200 ng/ml) and ligand (5 μg/ml) for 3 hours
# Experimental: as §1
# CD4^+CD25^− T cells were cultured for 3 hours in coated wells with anti-CD3 (200 ng/ml) and NOTCH ligands (5 μg/ml) or IgG control (5 μg/ml). Total RNA was extracted with Trizol (Invitrogen) and purified by chloroform extraction. RNA was then reverse transcribed using 1 mM oligodT and the Superscript™ HH Rnase H-reverse transcriptase (Invitrogen Life technologies) according to the manufacturer's instructions. Quantitative PCR was performed in a LightCycler System (Roche diagnostics) using a SYBR Green PCR kit from Roche Diagnostics. The cDNA input for each population was normalized to obtain equivalent signals with Splicing Factor 3A1 (SF3A1) used as housekeeping gene. Primers used were: […]
# Active TGF-β mediates its biological functions by binding to TGF-β type I and type II receptors (TGF-βRII). Therefore, the effects of NOTCH activation on TGF-βRII expression of effector T cells were first investigated. […] This effect is abrogated in the presence of GSI (P<0.05 for comparison with culture performed without GSI vehicle).
# pSmad3 = test: Immunoblot for pSmad3 in CD4+CD25- T cells; settings: 48 hours on coated ligand in the presence of TGF-β (5 ng/ml)
# Experimental: FIG. 4: TGF-βRII function on effector T cells stimulated to NOTCH ligands • A) Western blot analysis was performed on CD4^+CD25^−T cells cultured for 48 hours in coated wells with anti-CD3 (200 ng/ml) and NOTCH ligands (5 μg/ml) in presence of TGF-β (5 ng/ml). The whole cell lysate was analysed by immunoblot for pSmad3 and b-actin was used as loading control. The experiment was repeated twice with similar results. […] Cells were analyzed 48 hours later and data normalized for β-galactosidase activity. Histograms show the luciferase activity in a representative experiment performed in PC12 with TβRII promoter-luciferase construct. The experiment was repeated 3 times with similar results.
# CD4^+CD25^− T cells were stimulated with NOTCH Ligand during 2 days. 1 ng/ml of TGF-β was also added during 30 min to induce Smad3 phosphorylation. Cells were collected, washed and lysed with Tris HCL (20 mM) 0.5% SDS buffer in presence of DNase (benzonase), inhibitors of phosphatase and protease. 10 μg proteins were deposed for Western blot Analysis with following Antibodies: Anti-PhosphoSmad3, Smad3, Actine.
# Given the above observations showing an upregulation of TGF-βRII following NOTCH activation, the inventors hypothesized that Jagged-1 and DL-4 led to an activation of TGF-β signalling in effector T cells. […]
Molecule,TGF-βRII protein expression (MFI) [1],"TGF-βRII RNA expression, increase compared to IgG control (TGF-βRII RNA expression)",pSmad3 signal (immunoblot) (pSmad3)
"Jagged-1: recombinant NOTCH ligand Jagged-1, used coated as Jagged-1-Fc (SEQ ID NO: 5)",130,2.8 fold,strong pSmad3 signal
B1,85,did not significantly modify,weak pSmad3 signal

# Reference: patent US20150140043A1, “IMMUNOMODULATORY METHODS USING NOTCH AGONISTS” (INSTITUT NATIONAL DE LA SANTE DE LA RECHERCHE MEDICAL …, priority 2012, published 2015)
